Experimental data reported in patent US20100317690A1, “TREATMENT OF PROTEIN FOLDING DISORDERS” (SUMMIT CORPORATION PLC, priority 2007, published 2010).

Molecular target: T1, Jack bean α-D-mannosidase (Canavalia ensiformis, UniProt C0HJB3)
T1 construct: purchased Sigma M7257
T1 sequence (C0HJB3 1-981): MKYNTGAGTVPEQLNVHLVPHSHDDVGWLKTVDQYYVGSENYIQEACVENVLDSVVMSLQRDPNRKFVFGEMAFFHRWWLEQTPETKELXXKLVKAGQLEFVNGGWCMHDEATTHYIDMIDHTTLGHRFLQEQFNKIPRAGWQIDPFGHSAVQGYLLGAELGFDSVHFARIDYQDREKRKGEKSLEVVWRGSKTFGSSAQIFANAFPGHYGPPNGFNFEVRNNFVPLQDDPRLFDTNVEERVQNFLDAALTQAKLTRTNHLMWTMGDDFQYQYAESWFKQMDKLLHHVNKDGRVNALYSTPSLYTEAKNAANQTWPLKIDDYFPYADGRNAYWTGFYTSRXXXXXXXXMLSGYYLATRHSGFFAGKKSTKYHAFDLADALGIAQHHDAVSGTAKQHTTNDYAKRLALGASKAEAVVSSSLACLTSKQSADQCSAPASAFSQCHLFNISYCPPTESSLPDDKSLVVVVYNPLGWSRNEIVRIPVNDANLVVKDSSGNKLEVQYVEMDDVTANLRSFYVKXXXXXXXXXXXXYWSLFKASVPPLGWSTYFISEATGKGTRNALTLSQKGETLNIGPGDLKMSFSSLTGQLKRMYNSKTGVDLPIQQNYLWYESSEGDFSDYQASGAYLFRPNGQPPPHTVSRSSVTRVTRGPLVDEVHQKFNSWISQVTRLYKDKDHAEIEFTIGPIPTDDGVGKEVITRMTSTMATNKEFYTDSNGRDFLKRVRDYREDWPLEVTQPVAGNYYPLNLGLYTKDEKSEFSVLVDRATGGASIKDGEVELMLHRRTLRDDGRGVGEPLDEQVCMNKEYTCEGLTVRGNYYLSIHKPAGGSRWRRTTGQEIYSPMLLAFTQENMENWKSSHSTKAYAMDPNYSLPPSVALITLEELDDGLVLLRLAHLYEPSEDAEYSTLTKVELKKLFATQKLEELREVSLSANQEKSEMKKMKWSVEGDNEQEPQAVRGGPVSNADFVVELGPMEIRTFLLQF
Assay: Jack bean α-D-mannosidase activity assay (PNP-α-D-mannopyranoside substrate)
Type: biochemical
Procedure: Fresh solutions had been prepared a day or so earlier of 0.2M Mcllvane buffer at pH 4.5 and 5 mM PNP-α-D-mannopyranoside (Sigma, N2127) in pH 4.5 buffer. Also prepared was a dilution of Jack bean α-D-mannosidase enzyme (Sigma, M7257, 22 Units/mg, 6.2 mg/ml.) at 0.6 Units/ml in pH 4.5 buffer.
The incubation mixture consisted of 10 μl enzyme solution, 10 μl of 1 mg/ml aqueous inhibitor solution and 50 μl of 5 mM substrate made up in buffer at the optimum pH for the enzyme. The reactions were stopped by addition of 70 μl 0.4M glycine (pH 10.4) during the exponential phase of the reaction, which had been determined at the beginning using uninhibited assays in which water replaced inhibitor. Final absorbances were read at 405 nm using a Versamax microplate reader (Molecular Devices). Assays were carried out in triplicate, and the values given are means of the three replicates per assay. Results were expressed as a percentage of uninhibited assays in which water replaced inhibitor.

O[C@H]1[C@H]2[C@H](O)CCCN2C[C@H]1O [swainsonine]
inhibition of the promoted activity (activity promoted by imino sugars with a mannose configuration): total inhibition | promotion of the mannosidase (any concentration tested): does not cause promotion | inhibition (swainsonine alone, or mixed with an equal concentration of the selected stimulating compound): 100%
